Drawing on ChEMBL document CHEMBL6092193, “Identification of furo[2,3-d]pyrimidin-4-ylsulfanyl-1,3,4-thiadiazole derivatives as novel FLT3-ITD inhibitors” (Eur J Med Chem, 2024), this text covers IC50 and GI50 for 29 compounds.

Assay [1] has as its target Receptor-type tyrosine-protein kinase FLT3 (Homo sapiens, UniProt P36888, ITD). The experiment in a line: biochemical. The assay is classed as cell-based, Sf9.
Assay [2] has as its system MV4-11. The experiment in a line: Antiproliferative activity against human MV4-11 cells harboring homozygous FLT3-ITD mutant assessed as inhibition of cell growth incubated for 72 hrs by resazurin dye based fluorescence analysis. The assay is classed as functional. On the technique in general: Resazurin is reduced to fluorescent resorufin, in cell work by metabolically active cells.

Assay [3] relates to K562. The experiment in a line: cells. Conditions: Homo sapiens, K562, 72 h.
Description: Antiproliferative activity against FLT3-independent human K562 cells assessed as inhibition of cell growth incubated for 72 hrs by resazurin dye based fluorescence analysis
Assay [4] has as its system MOLM-13. The experiment in a line: cells. Conditions: Homo sapiens, MOLM-13, 72 h.

Molecules are shown by their SMILES.

Chain of Receptor-type tyrosine-protein kinase FLT3 (P36888 whole entry, looked up, stated change not applied): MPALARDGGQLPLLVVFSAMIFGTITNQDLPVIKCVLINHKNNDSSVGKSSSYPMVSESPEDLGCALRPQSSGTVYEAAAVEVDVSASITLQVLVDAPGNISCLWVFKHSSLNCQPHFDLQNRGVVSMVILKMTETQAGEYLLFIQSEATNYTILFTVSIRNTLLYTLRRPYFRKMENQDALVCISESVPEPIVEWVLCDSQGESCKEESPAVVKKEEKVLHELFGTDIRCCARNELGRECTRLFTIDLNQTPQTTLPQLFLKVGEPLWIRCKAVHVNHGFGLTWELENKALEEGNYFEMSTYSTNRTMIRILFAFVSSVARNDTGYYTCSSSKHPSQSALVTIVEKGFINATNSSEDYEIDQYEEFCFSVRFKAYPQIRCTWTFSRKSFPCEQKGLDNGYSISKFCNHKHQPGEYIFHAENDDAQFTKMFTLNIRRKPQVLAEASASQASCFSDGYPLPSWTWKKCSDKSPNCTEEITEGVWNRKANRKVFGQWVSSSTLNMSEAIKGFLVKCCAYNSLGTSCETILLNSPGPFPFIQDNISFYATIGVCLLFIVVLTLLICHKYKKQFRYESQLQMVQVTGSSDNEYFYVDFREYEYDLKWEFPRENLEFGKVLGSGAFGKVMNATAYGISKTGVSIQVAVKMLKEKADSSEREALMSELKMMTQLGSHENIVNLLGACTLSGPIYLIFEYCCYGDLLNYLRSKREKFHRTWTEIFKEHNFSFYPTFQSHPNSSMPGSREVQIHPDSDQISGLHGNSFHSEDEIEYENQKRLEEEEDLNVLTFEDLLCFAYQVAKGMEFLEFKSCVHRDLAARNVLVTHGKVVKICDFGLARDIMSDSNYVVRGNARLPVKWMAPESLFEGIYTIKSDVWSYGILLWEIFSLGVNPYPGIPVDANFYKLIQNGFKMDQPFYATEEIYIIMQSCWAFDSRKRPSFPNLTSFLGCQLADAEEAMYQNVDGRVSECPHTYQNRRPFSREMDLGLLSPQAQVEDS

The term IC50 denotes the concentration that gives 50% inhibition. Read a high IC50 as weaker potency. In general, GI50 refers to the concentration at which growth is held to half of that of the control. For `O=C(Nc1nnc(Sc2ncnc3oc(-c4ccccc4)c(-c4ccccc4)c23)s1)Nc1ccc(F)cc1F`, the IC50 in assay [1] stood at 6 nM. For the same compound, the figures for the GI50 in assay [2], in assay [3] and in assay [4] were 169 nM, above 10000 nM and 164 nM, respectively.
The matching figures for `O=C(Nc1cccc(Cl)c1)Nc1nnc(Sc2ncnc3oc(-c4ccccc4)c(-c4ccccc4)c23)s1`: 14 nM, 362 nM, above 10000 nM and 404 nM.
In assay [1], `Cc1ccc(NC(=O)Nc2nnc(Sc3ncnc4oc(-c5ccccc5)cc34)s2)cc1Cl` displayed an IC50 of 3 nM. Also, the GI50 in assay [2] worked out at 430 nM; in assay [3] it was 9500 nM; in assay [4] it was 375 nM.
The matching figures for `O=C(Nc1ccc(Cl)c(C(F)(F)F)c1)Nc1nnc(Sc2ncnc3oc(-c4ccccc4)cc23)s1`: 3 nM, 910 nM, above 10000 nM and 1220 nM.
As to `O=C(Nc1ccc(Br)cc1)Nc1nnc(Sc2ncnc3oc(-c4ccccc4)cc23)s1`, half-maximal inhibition in assay [1] (IC50) required 3 nM. Also, the values for the GI50 in assay [2], in assay [3] and in assay [4] were 1190 nM, above 10000 nM and 570 nM, respectively.
Taken in the same sequence, the figures for `O=C(Nc1ccccc1)Nc1nnc(Sc2ncnc3oc(-c4ccccc4)c(-c4ccccc4)c23)s1` were 4 nM, 74 nM, above 10000 nM and 110 nM.
The matching figures for `O=C(Nc1cccc(Cl)c1)Nc1nnc(Sc2ncnc3oc(-c4ccccc4)cc23)s1`: 10 nM, 345 nM, above 10000 nM and 240 nM.
`O=C(Nc1ccc(Cl)c(C(F)(F)F)c1)Nc1nnc(Sc2ncnc3oc(-c4ccccc4)c(-c4ccccc4)c23)s1`: it took 1270 nM to reach half-maximal inhibition in assay [1] (IC50). The 50% growth inhibitory concentration (GI50) in assay [2] is 8300 nM; in assay [3], above 10000 nM; in assay [4], above 10000 nM.
In the case of `O=C(Nc1ccc(Cl)c(Cl)c1)Nc1nnc(Sc2ncnc3oc(-c4ccccc4)cc23)s1`, the IC50 in assay [1] stood at 4 nM. Moreover, the values for the GI50 in assay [2], in assay [3] and in assay [4] were 1030 nM, 9830 nM and 710 nM, respectively.
Taken in the same sequence, the figures for `COc1ccc(-c2cc3c(Sc4nnc(NC(=O)Nc5cccc(Cl)c5)s4)ncnc3o2)cc1` were 48 nM, 1560 nM, above 10000 nM and 1060 nM.
Compound `O=C(Nc1ccccc1)Nc1nnc(Sc2ncnc3oc(-c4ccccc4)cc23)s1` had a 50% inhibitory concentration (IC50) in assay [1] of 38 nM. In addition, the 50% growth inhibitory concentration (GI50) was 165 nM in assay [2], above 10000 nM in assay [3] and 87 nM in assay [4].
The matching figures for `Cc1ccc(NC(=O)Nc2nnc(Sc3ncnc4oc(-c5ccccc5)c(-c5ccccc5)c34)s2)cc1Cl`: above 5000 nM, above 10000 nM, above 10000 nM and above 10000 nM.
In the case of `Cc1cccc(NC(=O)Nc2nnc(Sc3ncnc4oc(-c5ccccc5)c(-c5ccccc5)c34)s2)c1`, the IC50 in assay [1] is 10 nM. In addition, the concentration for 50% growth inhibition (GI50) in assay [2] was 115 nM; in assay [3] it was above 10000 nM; in assay [4] it was 120 nM.
For the compound `COc1ccc(-c2cc3c(Sc4nnc(NC(=O)Nc5ccc(Cl)cc5)s4)ncnc3o2)cc1`, the concentration for half-maximal inhibition (IC50) in assay [1] came out at 22 nM. Besides, the 50% growth inhibitory concentration (GI50) is 1380 nM in assay [2], above 10000 nM in assay [3] and 1140 nM in assay [4].
The matching figures for `COc1ccc(-c2cc3c(Sc4nnc(NC(=O)Nc5ccccc5)s4)ncnc3o2)cc1`: 16 nM, 96 nM, above 10000 nM and 117 nM.
Taken in the same sequence, the figures for `COc1cccc(NC(=O)Nc2nnc(Sc3ncnc4oc(-c5ccccc5)c(-c5ccccc5)c34)s2)c1` were 4 nM, 86 nM, 9950 nM and 185 nM.
The matching figures for `O=C(Nc1ccc(Cl)cc1)Nc1nnc(Sc2ncnc3oc(-c4ccccc4)cc23)s1`: 9 nM, 430 nM, above 10000 nM and 297 nM.
On to `Cc1cccc(NC(=O)Nc2nnc(Sc3ncnc4oc(-c5ccccc5)cc34)s2)c1`, for which the IC50 in assay [1] was 12 nM. Moreover, the GI50 is 133 nM in assay [2], above 10000 nM in assay [3] and 105 nM in assay [4].
Taken in the same sequence, the figures for `O=C(Nc1ccc(Br)cc1)Nc1nnc(Sc2ncnc3oc(-c4ccccc4)c(-c4ccccc4)c23)s1` were 55 nM, 396 nM, above 10000 nM and 723 nM.
Consider `Cc1ccc(NC(=O)Nc2nnc(Sc3ncnc4oc(-c5ccccc5)c(-c5ccccc5)c34)s2)cc1`, for which, in assay [1], half-maximal inhibition (IC50) required 5 nM. The 50% growth inhibitory concentration (GI50) is 134 nM in assay [2], above 10000 nM in assay [3] and 194 nM in assay [4].
The compound `COc1ccc(NC(=O)Nc2nnc(Sc3ncnc4oc(-c5ccc(OC)cc5)cc34)s2)cc1` yielded an IC50 in assay [1] of 23 nM. Also, the GI50 in assay [2] is 250 nM; in assay [3], above 10000 nM; in assay [4] it was 180 nM.
The matching figures for `O=C(Nc1ccc(Cl)c(Cl)c1)Nc1nnc(Sc2ncnc3oc(-c4ccccc4)c(-c4ccccc4)c23)s1`: 455 nM, 6190 nM, above 10000 nM and 8660 nM.
`COc1cccc(NC(=O)Nc2nnc(Sc3ncnc4oc(-c5ccccc5)cc34)s2)c1` yielded a concentration for half-maximal inhibition (IC50) in assay [1] of 17 nM. For the same compound, the concentration for 50% growth inhibition (GI50) was 120 nM in assay [2], 9460 nM in assay [3] and 79 nM in assay [4].
Taken in the same sequence, the figures for `O=C(Nc1nnc(Sc2ncnc3oc(-c4ccccc4)c(-c4ccccc4)c23)s1)Nc1ccccc1Br` were 4 nM, 290 nM, above 10000 nM and 427 nM.
On to `COc1ccc(NC(=O)Nc2nnc(Sc3ncnc4oc(-c5ccccc5)c(-c5ccccc5)c34)s2)cc1`, for which the IC50 in assay [1] turned out to be 5 nM. Also, the GI50 in assay [2] was 61 nM; in assay [3], above 10000 nM; in assay [4] it was 83 nM.
Taken in the same sequence, the figures for `O=C(Nc1ccc(Cl)cc1)Nc1nnc(Sc2ncnc3oc(-c4ccccc4)c(-c4ccccc4)c23)s1` were 16 nM, 342 nM, 9860 nM and 452 nM.
Consider `O=C(Nc1cccc(F)c1)Nc1nnc(Sc2ncnc3oc(-c4ccccc4)c(-c4ccccc4)c23)s1`, for which, in assay [1], the IC50 is 4 nM. For the same compound, the concentration for 50% growth inhibition (GI50) in assay [2] was 145 nM; in assay [3] it was above 10000 nM; in assay [4], 650 nM.
Taken in the same sequence, the figures for `O=C(Nc1cccc(F)c1)Nc1nnc(Sc2ncnc3oc(-c4ccccc4)cc23)s1` were 56 nM, 337 nM, 7960 nM and 190 nM.
The matching figures for `COc1ccc(-c2cc3c(Sc4nnc(NC(=O)Nc5ccc(Cl)c(C(F)(F)F)c5)s4)ncnc3o2)cc1`: 55 nM, above 10000 nM, above 10000 nM and 5820 nM.
